Read-outs that look alike come from different tables or passages of the source.
Key:
mouse RORγ = target: T1, mouse RORγ (Mus musculus, UniProt P51450); experiment: In vitro assay of inhibitory effect against RORγ transcriptional activity (GAL4-mRORγ LBD luciferase reporter gene assay in CHO cells); format: cell-based; conditions: for mRORγ luciferase activity, %-of-control: value in parentheses beside the > EC50 bound, vehicle-control 0.2% DMSO alone = 100%
T1 construct: mouse RORγ, from Ile251 to Lys516; expressed in transfected cells; host or cells: CHO cells (Chinese hamster ovary), transient co-transfection with pG5-Luc
T1 sequence (P51450 251-516): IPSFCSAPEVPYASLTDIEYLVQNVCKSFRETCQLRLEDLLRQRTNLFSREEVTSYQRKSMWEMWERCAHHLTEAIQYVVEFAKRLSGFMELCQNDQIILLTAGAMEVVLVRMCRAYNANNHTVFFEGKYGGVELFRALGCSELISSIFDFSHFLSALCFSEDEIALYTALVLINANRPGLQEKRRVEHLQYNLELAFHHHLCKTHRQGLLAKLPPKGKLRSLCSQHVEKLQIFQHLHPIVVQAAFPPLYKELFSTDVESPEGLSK
Outline: (§1)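 In this reporter assay, compounds acted for 2 days on transfected CHO cells carrying GAL4-RORγ LBD (human or mouse) with pG5-Luc. Percent values refer to the 0.2% DMSO control.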

human RORγ = target: T2, human RORγ (Homo sapiens, UniProt P51449); experiment: In vitro assay of inhibitory effect against RORγ transcriptional activity (GAL4-hRORγ LBD luciferase reporter gene assay in CHO cells); format: cell-based; conditions: for hRORγ luciferase activity, %-of-control: value in parentheses beside the > EC50 bound, vehicle-control 0.2% DMSO alone = 100%
T2 construct: human RORγ, from Ser253 to Lys518; expressed in transfected cells; host or cells: CHO cells (Chinese hamster ovary), transient co-transfection with pG5-Luc
T2 sequence (P51449 253-518): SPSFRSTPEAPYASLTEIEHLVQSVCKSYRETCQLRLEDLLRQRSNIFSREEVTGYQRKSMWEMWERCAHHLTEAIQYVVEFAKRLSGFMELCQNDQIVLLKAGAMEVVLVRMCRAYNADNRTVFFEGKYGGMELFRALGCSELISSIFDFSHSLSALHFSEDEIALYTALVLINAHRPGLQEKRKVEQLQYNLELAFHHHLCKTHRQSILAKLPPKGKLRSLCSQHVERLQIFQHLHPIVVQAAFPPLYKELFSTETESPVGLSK
Outline: as §1

[1] = GAL4-mRORγ LBD / pG5-Luc in CHO cells, 2 days incubation
[2] = GAL4-hRORγ LBD / pG5-Luc in CHO cells, 2 days incubation
[3] = GAL4-mRORγ LBD luciferase reporter, CHO cells, read-out: LUC EC50 mRORγ
[4] = GAL4-hRORγ LBD luciferase reporter, CHO cells, read-out: LUC EC50 hRORγ

EC50 (mouse RORγ; [1]) | mRORγ luciferase activity, %-of-control (mouse RORγ) | EC50 (human RORγ; [2]) | hRORγ luciferase activity, %-of-control (human RORγ) | EC50 (mouse RORγ; [3]) | EC50 (human RORγ; [4]) | SMILES
> 20000 nM | (54%) | > 20000 nM | (66%) | – | – | CC(C)C1=CN(CCC(=O)O)C(=O)N[C@]1(C)c1ccc(CCCC(F)(F)F)c(Cl)c1 [Example 128]
– | – | – | – | 71 nM | 37 nM | CC(C)(C)CCc1ccc([C@]2(C)NC(=O)N(CCC(=O)O)C=C2c2ccccc2)cc1Cl [Example 265]
5930 nM | – | 6570 nM | – | – | – | CC(C)C1=CN(CCCC(=O)O)C(=O)NC1(C)c1ccc(OCC(C)(C)C)c(Cl)c1 (single isomer, unassigned) [Example 13]
16 nM | – | 19 nM | – | – | – | CC(C)C1=CN(C2CCC(C(=O)O)C2)C(=O)N[C@@]1(C)c1ccc(CCC(C)(C)C)c(Cl)c1 (single isomer, unassigned) [Example 64]
– | – | – | – | 19 nM | 21 nM | CC(C)C1=CN(C23CC(C(=O)O)(C2)C3)C(=O)N[C@@]1(C)c1ccc(CCC(C)(C)C)c(C(F)(F)F)c1 [Example 322]
– | – | – | – | 45 nM | 59 nM | CC(C)(C)COc1ccc([C@]2(C)NC(=O)N(c3ccc(C(=O)O)cc3)C=C2C2CC(F)(F)C2)cc1Cl [Example 353]
> 3200 nM | (52%) | > 3200 nM | (51%) | – | – | CC(C)C1=CN(CC(C)(C)CC(=O)O)C(=O)N[C@]1(C)c1ccc(CCC(C)(C)C)c(Cl)c1 [Example 35]
14 nM | – | 61 nM | – | – | – | CC(C)C1=CN(CCC(=O)O)C(=O)N[C@@]1(C)c1ccc(CCC2CCCC2)c(Cl)c1 [Example 120]
– | – | – | – | 15 nM | 17 nM | CC(C)(C)C1=CN(CCC(=O)O)C(=O)N[C@@]1(C)c1ccc(CC2CCCCC2)c(Cl)c1 [Example 339]

Reference: patent US10196363B2, “Dihydropyrimidin-2-one compounds and medical use thereof” (JAPAN TOBACCO INC., priority 2014, dated 2019)
